# Reference: patent US20060063759A1, “Tricyclic steroid hormone nuclear receptor modulators” (priority 2002, published 2006)
# Biological target: T1, glucocorticoid receptor (Homo sapiens, UniProt P04150)
# T1 construct: containing 50-200 ug of A549 cell extract and 1.86 nM [^3H]-dexamethasone; host or cells: A549 human lung epithelial cells (sonicated cell extract)
# T1 sequence (P04150 1-777): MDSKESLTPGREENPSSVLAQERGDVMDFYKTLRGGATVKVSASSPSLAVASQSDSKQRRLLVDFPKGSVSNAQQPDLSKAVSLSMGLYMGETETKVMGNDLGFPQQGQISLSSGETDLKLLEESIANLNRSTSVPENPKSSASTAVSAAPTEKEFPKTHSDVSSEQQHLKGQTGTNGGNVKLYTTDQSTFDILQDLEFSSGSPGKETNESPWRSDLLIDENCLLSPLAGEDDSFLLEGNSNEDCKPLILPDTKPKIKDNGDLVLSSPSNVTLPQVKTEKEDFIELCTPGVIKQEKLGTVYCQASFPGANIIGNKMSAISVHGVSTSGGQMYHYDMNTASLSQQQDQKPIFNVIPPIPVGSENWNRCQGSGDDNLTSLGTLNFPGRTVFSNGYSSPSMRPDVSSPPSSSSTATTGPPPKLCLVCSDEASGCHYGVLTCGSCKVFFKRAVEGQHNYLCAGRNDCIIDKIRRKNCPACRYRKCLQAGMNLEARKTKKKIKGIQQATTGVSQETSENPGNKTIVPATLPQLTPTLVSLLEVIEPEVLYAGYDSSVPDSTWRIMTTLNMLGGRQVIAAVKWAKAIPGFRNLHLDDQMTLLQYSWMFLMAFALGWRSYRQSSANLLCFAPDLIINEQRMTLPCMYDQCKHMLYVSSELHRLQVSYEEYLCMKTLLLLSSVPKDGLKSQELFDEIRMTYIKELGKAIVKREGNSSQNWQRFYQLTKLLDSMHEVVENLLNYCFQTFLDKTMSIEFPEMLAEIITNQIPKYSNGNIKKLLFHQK
# Assay: Glucocorticoid Receptor Binding Assay ([3H]-dexamethasone, A549 cell extract)
# Details: [3H]-dexamethasone binding, read-out: GR Ki
# Method: All ligands, radioligands, solvents, and reagents employed in the binding assays are readily available from commercial sources, or can be readily synthesized by the ordinarily skilled artisan.
# A549 human lung epithelial cells (ATCC) are grown at a scale where gram quantity cell pellets are obtained. Harvested cell pellets are washed twice in cold phosphate buffered saline, centrifuged, and resuspended in cold assay binding buffer. The assay binding buffer consists of 10% glycerol, 50 mM Tris-HCl (pH7.2), 75 mM sodium chloride, 1.5 mM magnesium chloride, 1.5 mM EDTA, and 10 mM sodium molybdate. Cell suspensions were lysed via sonication, centrifuged, and the “extract” supernatant is snap frozen and stored at −80 C until needed.
# GR binding assays are performed in a final volume of 140 ul containing 50-200 ug of A549 cell extract and 1.86 nM [^3H]-dexamethasone (Amersham) plus varying concentrations of test compound or vehicle. Briefly, assays are prepared at RT in 96-well Fisher 3356 plates, each well containing 100 ul of A549 cell extract, 20 ul of [^3H]-dexamethasone, and 20 ul of test compound/vehicle. Incubations are carried out at 4 degrees Celsius for 16 hours. After incubation, 70 ul of 3× dextran-coated charcoal solution is added to each reaction, mixed, and incubated for 8 minutes at RT. 3×-dextran-coated charcoal solution consists of 250 ml assay binding buffer, 3.75 g Norit A charcoal (Sigma), and 1.25 g dextran T-70 (Amersham). Charcoal/unbound radioligand complexes are removed by centrifugation of the plate and 140 ul of supernatant from each well is transferred to another 96 well Optiplate (Packard Instruments). 200 ul of Microscint-20 scinillant (Packard Instruments) is added to each well and amount of receptor bound radioligand is determined using Packard Instruments TopCount instrument.
row,Structure (SMILES),Ki [nM]
1,"O=[N+]([O-])c1cccc(/C=C2/c3ccccc3OCc3c(Cl)cccc32)c1 [Example 272, 7-Chloro-11-(3-nitro-benzylidene)-6,11-dihydro-dibenzo[b,e]oxepine]",< 10000
2,CS(=O)(=O)Nc1cccc(/C=C2\c3ccccc3CCc3ccc(S(C)(=O)=O)cc32)c1 [Example 324],< 1000
3,O=c1[nH]c2ccc(/C=C3/c4ccccc4COc4cc(F)ccc43)cc2[nH]1 [Example 631],< 1000
4,O=S(=O)(Nc1cccc(/C=C2\c3ccccc3CSc3ccccc32)c1)c1ccc(Cl)c(Cl)c1 [Example 690],< 1000

# More lines, now with the values ahead:
row,Ki [nM],Structure (SMILES)
1,< 500,CCOc1ccc2c(c1)CCc1ccccc1C2=Cc1cccc(NS(C)(=O)=O)c1 [Example 331]
2,< 500,CCCOc1ccc2c(c1)CCc1ccccc1C2=Cc1cccc(NS(C)(=O)=O)c1 [Example 332]
3,< 500,COc1cccc2c1SCc1ccccc1C2=Cc1cccc(NS(C)(=O)=O)c1 [Example 686]
4,< 500,CCNC(=O)Nc1cccc(C=C2c3ccccc3CSc3c(C)cccc32)c1 [Example 689]
5,< 500,"CS(=O)(=O)Nc1cccc(C(C(=O)O)=C2c3ccccc3CCc3ccccc32)c1 [Example 754, (10,11-Dihydro-dibenzo[a,d]cyclohepten-5-ylidene)-(3-methanesulfonylamino-phenyl)-acetic acid]"
